According to the NIST ThermoML archive (doi:10.1016/j.jct.2013.12.025):
Numbers after ± are expanded uncertainties.

Test: refractive index (Na D-line) (dimensionless); xn = mol fraction of the nth substance listed
Details: 101 kPa, Liquid, Standard Abbe refractometry

C=C[Si](C)(C)O[Si](C)(C)C=C [1,3-diethenyl-1,1,3,3-tetramethyldisiloxane] + O=[N+]([O-])c1ccccc1
refractive index
Details | 283.15 K | 288.15 K | 293.15 K | 298.15 K | 303.15 K
x1 = 0.05 | 1.54466 ± 0.00032 | 1.54219 ± 0.00032 | 1.5397 ± 0.00032 | 1.53724 ± 0.00032 | 1.5348 ± 0.00032
x1 = 0.1 | 1.53289 ± 0.00032 | 1.53042 ± 0.00032 | 1.52796 ± 0.00032 | 1.52547 ± 0.00032 | 1.52302 ± 0.00032
x1 = 0.15 | 1.52202 ± 0.00032 | 1.51955 ± 0.00032 | 1.51705 ± 0.00032 | 1.51459 ± 0.00032 | 1.51211 ± 0.00032
x1 = 0.2 | 1.51193 ± 0.00032 | 1.50945 ± 0.00032 | 1.50694 ± 0.00032 | 1.50445 ± 0.00032 | 1.50196 ± 0.00032
x1 = 0.25 | 1.50266 ± 0.00032 | 1.50017 ± 0.00032 | 1.49764 ± 0.00032 | 1.49511 ± 0.00032 | 1.49265 ± 0.00032
x1 = 0.3 | 1.49408 ± 0.00032 | 1.49154 ± 0.00032 | 1.48901 ± 0.00032 | 1.48643 ± 0.00032 | 1.48396 ± 0.00032
x1 = 0.3508 | 1.48595 ± 0.00032 | 1.48341 ± 0.00032 | 1.48085 ± 0.00032 | 1.47825 ± 0.00032 | 1.47577 ± 0.00032
x1 = 0.4001 | 1.47862 ± 0.00032 | 1.47608 ± 0.00032 | 1.47352 ± 0.00032 | 1.47089 ± 0.00032 | 1.46841 ± 0.00032
x1 = 0.4501 | 1.4717 ± 0.00032 | 1.46914 ± 0.00032 | 1.46659 ± 0.00032 | 1.46395 ± 0.00032 | 1.46144 ± 0.00032
x1 = 0.4999 | 1.46522 ± 0.00032 | 1.46267 ± 0.00032 | 1.46009 ± 0.00032 | 1.45748 ± 0.00032 | 1.45493 ± 0.00032
x1 = 0.55 | 1.45917 ± 0.00032 | 1.45661 ± 0.00032 | 1.45401 ± 0.00032 | 1.45139 ± 0.00032 | 1.44883 ± 0.00032
x1 = 0.6001 | 1.45344 ± 0.00032 | 1.45088 ± 0.00032 | 1.4483 ± 0.00032 | 1.44568 ± 0.00032 | 1.44308 ± 0.00032
x1 = 0.6487 | 1.44824 ± 0.00032 | 1.44565 ± 0.00032 | 1.44307 ± 0.00032 | 1.44043 ± 0.00032 | 1.43783 ± 0.00032
x1 = 0.6999 | 1.44306 ± 0.00032 | 1.44044 ± 0.00032 | 1.43784 ± 0.00032 | 1.43521 ± 0.00032 | 1.43261 ± 0.00032
x1 = 0.7499 | 1.43821 ± 0.00032 | 1.43565 ± 0.00032 | 1.43306 ± 0.00032 | 1.43043 ± 0.00032 | 1.42778 ± 0.00032
x1 = 0.7999 | 1.4337 ± 0.00032 | 1.43109 ± 0.00032 | 1.42845 ± 0.00032 | 1.42584 ± 0.00032 | 1.42318 ± 0.00032
x1 = 0.8497 | 1.42937 ± 0.00032 | 1.42677 ± 0.00032 | 1.42414 ± 0.00032 | 1.42152 ± 0.00032 | 1.41887 ± 0.00032
x1 = 0.9 | 1.42527 ± 0.00032 | 1.42262 ± 0.00032 | 1.41999 ± 0.00032 | 1.41736 ± 0.00032 | 1.41471 ± 0.00032
x1 = 0.9499 | 1.42134 ± 0.00032 | 1.4187 ± 0.00032 | 1.41606 ± 0.00032 | 1.41343 ± 0.00032 | 1.41079 ± 0.00032
x1 = 1 | 1.4176 ± 0.00032 | 1.41495 ± 0.00032 | 1.41227 ± 0.00032 | 1.40965 ± 0.00032 | 1.407 ± 0.00032
